Test results: patent publication US12545673B2, “Imidazopyridine derivative and pharmaceutical composition comprising same as active ingredient” (TSD LIFE SCIENCES CO., LTD., priority 2019, dated 2026)
Where two headings read alike, the source gives them in different places.

Assays:
[1] = system: gastric cancer cell line Hs746T; test: Cancer cell proliferation inhibitory activity evaluation 2 (CCK-8), Hs746T; type: cell-based; settings: Homo sapiens
Description: (§1) In order to identify whether the compounds have anticancer activity, the acute myeloid leukemia cell line U937, the acute lymphoblastic leukemia cell line Jurkat, the gastric cancer cell lines AGS, […], and the human lung cancer cell line A549 were used. The cell line was cultured using RPMI-1640 medium (U937, Jurkat, AGS, A549) or DMEM (Hs746T) medium containing 10% fetal bovine serum. Welgene products were used as the medium, and hyclone products were used for fetal bovine serum, and 1% of antibiotics for cell culture from Gibco were used as the culture medium.

MLK3 = MLK3 (Homo sapiens (Human), UniProt Q16584); test: Evaluation of inhibitory activity of enzyme units, MLK3 ([γ-33P]-ATP filter assay); settings: read-out: IC50(nM) MLK3
[2] = system: acute myeloid leukemia cell line U937; test: Cancer cell proliferation inhibitory activity evaluation 2 (CCK-8), U937; type: cell-based; settings: Homo sapiens, read-out: Cancer cell proliferation inhibitory activity U937
Description: as §1

[3] = system: gastric cancer cell line AGS; test: Cancer cell proliferation inhibitory activity evaluation 2 (CCK-8), AGS; type: cell-based; settings: Homo sapiens, read-out: Cancer cell proliferation inhibitory activity AGS
Description: as §1

[4] = system: acute lymphoblastic leukemia cell line Jurkat; test: Cancer cell proliferation inhibitory activity evaluation 2 (CCK-8), Jurkat; type: cell-based; settings: Homo sapiens
Description: as §1

[5] = system: human lung cancer cell line A549; test: Cancer cell proliferation inhibitory activity evaluation 2 (CCK-8), A549; type: cell-based
Description: as §1

MLK1 = MLK1 (Homo sapiens (Human), UniProt P80192); test: Evaluation of inhibitory activity of enzyme units, MLK1 ([γ-33P]-ATP filter assay); type: biochemical
[6] = 72 h, read-out: Cancer cell proliferation inhibitory activity Hs746T
[7] = 72 h, read-out: Cancer cell proliferation inhibitory activity Jurkat
[8] = A549, 72 h, read-out: Cancer cell proliferation inhibitory activity A549
[9] = 10 μM, 72 hours, CCK-8, read-out: Cancer cell proliferation inhibitory activity Hs746T
[10] = U-937, 10 μM, 72 hours, CCK-8 (Table 3)
[11] = 10 μM, 72 hours, CCK-8, read-out: Cancer cell proliferation inhibitory activity Jurkat
[12] = A549, 10 μM, 72 hours, CCK-8, read-out: Cancer cell proliferation inhibitory activity A549

MLK3, sequence (Q16584 whole entry, looked up): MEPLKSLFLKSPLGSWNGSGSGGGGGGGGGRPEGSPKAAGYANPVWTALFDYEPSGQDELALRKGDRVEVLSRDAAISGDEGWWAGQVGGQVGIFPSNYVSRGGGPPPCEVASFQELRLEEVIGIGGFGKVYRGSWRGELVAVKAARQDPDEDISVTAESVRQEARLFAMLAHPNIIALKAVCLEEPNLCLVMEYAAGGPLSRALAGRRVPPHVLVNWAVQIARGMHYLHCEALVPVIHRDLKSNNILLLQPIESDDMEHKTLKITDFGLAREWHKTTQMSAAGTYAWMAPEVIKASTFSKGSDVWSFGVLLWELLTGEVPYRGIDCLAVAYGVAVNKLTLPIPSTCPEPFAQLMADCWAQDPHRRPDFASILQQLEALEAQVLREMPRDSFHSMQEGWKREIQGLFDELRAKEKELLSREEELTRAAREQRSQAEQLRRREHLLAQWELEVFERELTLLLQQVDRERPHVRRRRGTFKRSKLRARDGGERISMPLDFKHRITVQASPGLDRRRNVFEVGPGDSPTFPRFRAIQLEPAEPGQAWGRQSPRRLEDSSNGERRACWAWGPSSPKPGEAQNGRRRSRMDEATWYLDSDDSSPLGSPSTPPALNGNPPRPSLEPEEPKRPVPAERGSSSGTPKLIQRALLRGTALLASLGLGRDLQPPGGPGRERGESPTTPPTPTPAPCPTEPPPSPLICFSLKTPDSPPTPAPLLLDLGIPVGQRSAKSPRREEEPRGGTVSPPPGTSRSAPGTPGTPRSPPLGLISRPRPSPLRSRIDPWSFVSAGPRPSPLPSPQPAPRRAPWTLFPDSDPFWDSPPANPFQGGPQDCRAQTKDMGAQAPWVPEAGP
MLK1, sequence (P80192 whole entry, looked up): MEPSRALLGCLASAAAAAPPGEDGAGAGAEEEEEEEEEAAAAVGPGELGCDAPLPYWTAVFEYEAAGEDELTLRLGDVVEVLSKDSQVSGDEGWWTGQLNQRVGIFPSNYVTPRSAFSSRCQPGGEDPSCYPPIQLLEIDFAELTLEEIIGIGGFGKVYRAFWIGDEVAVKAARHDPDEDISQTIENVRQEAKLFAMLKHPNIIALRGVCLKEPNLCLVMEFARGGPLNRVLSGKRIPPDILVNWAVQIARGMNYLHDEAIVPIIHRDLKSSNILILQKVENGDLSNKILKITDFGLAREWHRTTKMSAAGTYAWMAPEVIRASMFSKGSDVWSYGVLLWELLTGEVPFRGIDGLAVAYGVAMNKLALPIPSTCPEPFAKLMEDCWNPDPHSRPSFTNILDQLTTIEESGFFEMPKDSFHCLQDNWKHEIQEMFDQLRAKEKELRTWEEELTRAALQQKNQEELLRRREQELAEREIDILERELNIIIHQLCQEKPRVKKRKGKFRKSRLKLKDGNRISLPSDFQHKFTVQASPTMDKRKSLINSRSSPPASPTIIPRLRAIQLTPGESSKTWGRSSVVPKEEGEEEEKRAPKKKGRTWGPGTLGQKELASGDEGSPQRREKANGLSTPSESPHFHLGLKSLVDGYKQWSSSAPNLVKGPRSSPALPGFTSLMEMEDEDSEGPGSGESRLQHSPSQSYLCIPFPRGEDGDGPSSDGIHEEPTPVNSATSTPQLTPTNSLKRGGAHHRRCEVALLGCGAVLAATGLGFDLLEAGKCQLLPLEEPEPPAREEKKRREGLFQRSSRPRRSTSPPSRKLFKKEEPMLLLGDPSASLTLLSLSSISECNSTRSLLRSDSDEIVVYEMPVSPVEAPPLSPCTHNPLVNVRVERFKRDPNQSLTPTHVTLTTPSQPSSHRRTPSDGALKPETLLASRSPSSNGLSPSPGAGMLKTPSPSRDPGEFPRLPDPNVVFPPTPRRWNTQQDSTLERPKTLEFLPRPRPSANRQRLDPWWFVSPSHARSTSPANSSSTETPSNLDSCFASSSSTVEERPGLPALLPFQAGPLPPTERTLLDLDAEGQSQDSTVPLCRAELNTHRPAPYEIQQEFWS

Structure (SMILES)	inhibition at 10 µM [1, 6]	IC50 (MLK3)	inhibition at 10 µM ([2]; U-937, 72 h)	inhibition at 10 µM ([3]; 72 h)	inhibition at 10 µM [4, 7]	inhibition at 10 µM [5, 8]	IC50 (MLK1)	inhibition at 10 µM [1, 9]	inhibition at 10 µM [2, 10]	inhibition at 10 µM ([3]; 10 μM, 72 hours, CCK-8)	inhibition at 10 µM [4, 11]	inhibition at 10 µM [5, 12]
CCS(=O)(=O)N1CC[C@H](Nc2c(Br)cnc3nc(-c4cc(C)n(-c5ccc(C(=O)N6CCN(C)CC6)cc5)c4C)[nH]c23)C1 [Example 67, (S)-(4-(3-(6-bromo-7-((1-(ethylsulfonyl)pyrrolidine-3-yl)amino)-1H-imidazo[4,5-b]pyridine-2-yl)-2,5-dimethyl-1H-pyrrol-1-yl)phenyl) (4-methylpiperazine-1-yl) methanone]	10 to 50%	19 nM	> 50%	> 50%	> 50%	10 to 50%	32 nM					
CCS(=O)(=O)N1CC[C@H](Nc2c(Br)cnc3nc(-c4cc(C)n(-c5cccc(C(=O)N6CCN(C)CC6)c5)c4C)[nH]c23)C1 [Example 68]	> 50%	16 nM	> 50%	> 50%	> 50%	> 50%	25 nM					
CCS(=O)(=O)N1CC[C@H](Nc2c(Br)cnc3[nH]c(-c4cc(C)n(-c5cccc(C(=O)NCCN6CCOCC6)c5)c4C)nc23)C1 [Example 69, (S)-3-(3-(6-bromo-7-((1-(ethylsulfonyl)pyrrolidine-3-yl)amino)-3H-imidazo[4,5-b]pyridine-2-yl)-2,5-dimethyl-1H-pyrrol-1-yl)-N-(2-morpholinoethyl)benzamide]	10 to 50%	13 nM	> 50%	> 50%	> 50%	10 to 50%	22 nM					
CCS(=O)(=O)N1CC[C@H](Nc2c(Br)cnc3[nH]c(-c4cc(C)n(-c5ccc(C(=O)NCCN6CCOCC6)cc5)c4C)nc23)C1 [Example 70, (S)-4-(3-(6-bromo-7-((1-(ethylsulfonyl)pyrrolidine-3-yl)amino)-3H-imidazo[4,5-b]pyridine-2-yl)-2,5-dimethyl-1H-pyrrol-1-yl)-N-(2-morpholinoethyl)benzamide]		18 nM					36 nM	10 to 50%	> 50%	> 50%	> 50%	10 to 50%
CCS(=O)(=O)N1CC[C@H](Nc2c(Br)cnc3[nH]c(-c4cc(C)n(-c5cccc(C(=O)NCCN6CCN(C)CC6)c5)c4C)nc23)C1 [Example 71, (S)-3-(3-(6-bromo-7-((1-(ethylsulfonyl)pyrrolidine-3-yl)amino)-3H-imidazo[4,5-b]pyridine-2-yl)-2,5-dimethyl-1H-pyrrol-1-yl)-N-(2-(4-methylpiperazine-1-yl)ethyl)benzamide]	> 50%	26 nM	10 to 50%	> 50%	> 50%	< 10%	36 nM					
CCS(=O)(=O)N1CC[C@H](Nc2c(Br)cnc3[nH]c(-c4cc(C)n(-c5ccc(C(=O)NCCN6CCN(C)CC6)cc5)c4C)nc23)C1 [Example 72, (S)-4-(3-(6-bromo-7-((1-(ethylsulfonyl)pyrrolidine-3-yl)amino)-3H-imidazo[4,5-b]pyridine-2-yl)-2,5-dimethyl-1H-pyrrol-1-yl)-N-(2-(4-methylpiperazine-1-yl)ethyl)benzamide]	> 50%	15 nM	> 50%	> 50%	> 50%	10 to 50%	25 nM					
CCS(=O)(=O)N1CC[C@H](Nc2c(Br)cnc3nc(-c4cc(C)n(-c5cc(NC(=O)CN(C)C)ccc5C)c4C)[nH]c23)C1 [Example 74, N-(3-(3-(6-bromo-7-(((S)-1-(ethylsulfonyl)pyrrolidine-3-yl)amino)-1H-imidazo[4,5-b]pyridine-2-yl)-2,5-dimethyl-1H-pyrrol-1-yl)-4-methylphenyl)-2-(dimethylamino) acetamide]		46 nM					43 nM	> 50%	> 50%	> 50%	> 50%	> 50%
CCS(=O)(=O)N1CC[C@H](Nc2c(Br)cnc3nc(-c4cc(C)n(-c5ccc(NC(=O)CN6CCN(C)CC6)cc5C)c4C)[nH]c23)C1 [Example 75, N-(4-(3-(6-bromo-7-(((S)-1-(ethylsulfonyl)pyrrolidine-3-yl)amino)-1H-imidazo[4,5-b]pyridine-2-yl)-2,5-dimethyl-1H-pyrrol-1-yl)-3-methylphenyl)-2-(4-methylpiperazine-1-yl) acetamide]	> 50%	16 nM	> 50%	> 50%	> 50%	> 50%	30 nM					
CCS(=O)(=O)N1CC[C@H](Nc2c(Br)cnc3nc(-c4cc(C)n(-c5ccc(NC(=O)CN6CCOCC6)cc5C)c4C)[nH]c23)C1 [Example 77, N—(4-(3-(6-bromo-7-(((S)-1-(ethylsulfony)pyrolidine-3-yl)amino)-1H-imidazo[4,5-b]pyridine-2-yl)-2,5-dimethyl-1H-pyrrol-1-yl)-3-methylphenyl)-2-morpholinoacetamide]		7 nM					19 nM	10 to 50%	> 50%	> 50%	> 50%	10 to 50%
CCS(=O)(=O)N1CC[C@H](Nc2c(Br)cnc3nc(-c4cc(C)n(-c5cc(NC(=O)CN6CCOCC6)ccc5C)c4C)[nH]c23)C1 [Example 78, N-(3-(3-(6-bromo-7-(((S)-1-(ethylsulfonyl)pyrrolidine-3-yl)amino)-1H-imidazo[4,5-b]pyridine-2-yl)-2,5-dimethyl-1H-pyrrol-1-yl)-4-methylphenyl)-2-morpholinoacetamide]	> 50%	47 nM	> 50%	> 50%	> 50%	> 50%	25 nM					
CCS(=O)(=O)N1CC[C@H](Nc2c(Br)cnc3nc(-c4cc(C)n(-c5cccc(NC(=O)CCN(C)C)c5C)c4C)[nH]c23)C1 [Example 79]	> 50%	7 nM	> 50%	> 50%	> 50%	> 50%	35 nM					
CCS(=O)(=O)N1CC[C@H](Nc2c(Br)cnc3nc(-c4cc(C)n(-c5cccc(C(=O)N6CCOCC6)c5C)c4C)[nH]c23)C1 [Example 83, (3-(3-(6-bromo-7-(((S)-1-(ethylsulfonyl)pyrrolidine-3-yl)amino)-1H-imidazo[4,5-b]pyridine-2-yl)-2,5-dimethyl-1H-pyrrol-1-yl)-2-methylphenyl) (morpholino) methanone]	> 50%	12 nM	> 50%	> 50%	> 50%	10 to 50%	22 nM					
CCS(=O)(=O)N1CC[C@H](Nc2c(Br)cnc3nc(-c4cc(C)n(-c5cccc(NC(=O)CN6CCN(C)CC6)c5C)c4C)[nH]c23)C1 [Example 87, N-(3-(3-(6-bromo-7-(((S)-1-(ethylsulfonyl)pyrrolidine-3-yl)amino)-1H-imidazo[4,5-b]pyridine-2-yl)-2,5-dimethyl-1H-pyrrol-1-yl)-2-methylphenyl)-2-(4-methylpiperazine-1-yl) acetamide]	> 50%	13 nM	> 50%	> 50%	> 50%	> 50%	24 nM					
Cc1ccc(NC(=O)CN2CCN(C)CC2)cc1-n1c(C)cc(-c2nc3ncc(Br)c(Nc4cccc(S(N)(=O)=O)c4)c3[nH]2)c1C [Example 89, N-(3-(3-(6-bromo-7-((3-sulfamoylphenyl)amino)-1H-imidazo[4,5-b]pyridine-2-yl)-2,5-dimethyl-1H-pyrrol-1-yl)-4-methylphenyl)-2-(4-methylpiperazine-1-yl) acetamide]		81 nM					169 nM	10 to 50%	< 10%	10 to 50%	10 to 50%	< 10%
Cc1ccc(NC(=O)CN(C)C)cc1-n1c(C)cc(-c2nc3ncc(Br)c(Nc4cccc(S(N)(=O)=O)c4)c3[nH]2)c1C [Example 90, N-(3-(3-(6-bromo-7-((3-sulfamoylphenyl)amino)-1H-imidazo[4,5-b]pyridine-2-yl)-2,5-dimethyl-1H-pyrrol-1-yl)-4-methylphenyl)-2-(dimethylamino) acetamide]		92 nM					160 nM	10 to 50%	10 to 50%	> 50%	> 50%	10 to 50%
